The subject of one data set is TN full-length virus. The data set can be described thus: HCV antiviral treatment of Huh7.5 cells infected with TN full-length virus (first passage TN_LSGF/A1226G/Q1773H). Format: cell-based, hepatitis C virus (genotype 1a). Conditions: for inhibition of TN full-length virus: DAAs 24 hours post-infection, interferon-α2b 24 and 48 hours, HCV positive cells 72 hours post-infection. On the procedure: (§1) Naïve Huh7.5 cells were infected with first passage virus stock of TN full-length recombinant TN_LSGF/A1226G/Q1773H; the ORF sequence of this virus stock is shown in FIGS. 16 and 17. A J6/JFH1 virus stock was treated in parallel. Antivirals were administered 24 hours post infection at the indicated doses; interferon-α2b was also administered 48 hours post infection. The number of HCV positive cells per well was determined 72 hours post infection. (A) Dose response curves for treatments with lead compound protease inhibitors telaprevir (VX-950), boceprevir (SCH503034), and simeprevir (TMC435), NS5A inhibitor daclatasvir (BMS-790052), and NS5B inhibitor PSI-7977, as well as interferon-α2b. Values are means of triplicate determinations with SEM. (B) Median effective concentrations (EC50) of the used inhibitors against the indicated viruses. Values for EC50 and 95% confidence interval are shown.
(§2) HCV antiviral treatment. HCV DAAs were purchased from Acme Bioscience (Palo Alto, Calif.) and dissolved in dimethyl sulfoxide. Inerferon-α2b was purchased from Schering-Plough (Kenilworth, N.J.).
Briefly, Huh7.5 cells grown in poly-D-lysine-coated 96-well plates (Nunc) were infected with HCV and treated with DAAs 24 hours post-infection. Treatment with interferon-α2b was performed at 24 and 48 hours post-infection. Single HCV Core and NS5A positive cells were determined 72 hours post-infection by immunostaining with combination of C7-50 (Enzo Life Sciences) and 9E10 antibodies. Dose response curves were fitted and EC50 values with 95% confidence interval were calculated in GraphPad Prim 4 (Graphpad).

The next data set deals with Huh7.5 cells. The data set can be described thus: Cytotoxicity assay, non-cytotoxic dose range (Example 3). Format: cell-based, human. To be noted: at the doses used in this study. On the procedure:
A cytotoxicity assay was performed for PSI-7977, as we had not used this drug previously. The non-cytotoxic dose range for telaprevir, boceprevir, simeprevir, daclatasvir, and interferon-α2b was determined.

For another data set, the system named is J6 full-length virus. As to the kind of experiment: HCV antiviral treatment of Huh7.5 cells infected with J6 full-length virus (fourth passage J6_LSGΔ33U). It counts as cell-based, hepatitis C virus (genotype 2a). Conditions: for inhibition of full-length J6 culture viruses: treatment 24 and 48 hours post-infection, HCV positive cells counted 72 hours post-infection. The procedure: (§3) Naïve Huh7.5 cells were infected with indicated viruses, and antiviral treatments were carried out at 24 and 48 hours post-infection. The HCV positive cells were counted 72 hours post-infection as previously described. Fourth passage J6 full-length J6_LSGΔ33U virus (Table 3) was used for treatment. Treatment experiments with recombinants J6^5′UTR-NS2/JFH1, J6^Core-NS2,NS3 protease, NS4A/JFH1 and J6^Core-NS2,NS5A/JFH1 were included for comparison. (A) Treatment with protease inhibitors (boceprevir and TMC435) and the NS5A inhibitor daclatasvir (BMS-790052). (B) Treatment with NS5B inhibitors. (C) Median effective concentrations (EC50) of the used inhibitors against the indicated viruses. *, range of two experiments; experiments with the lowest EC50 shown in A or B. In A and B, values are means of triplicate determinations.
(§4) HCV antiviral treatment. HCV antivirals were purchased from Acme Bioscience (Palo Alto, Calif.) and dissolved in dimethyl sulfoxide. Huh7.5 cells grown in poly-D-lysine-coated 96-well plates (Nunc) were infected with HCV and treated with antivirals 24 and 48 hours post-infection as previously described. Single HCV core positive cells were determined by immunostaining with C7-50 (Enzo Life Sciences) 72 hours post-infection.

The subject of data set [1] is J6/JFH1-based recombinant with TN NS5A. As to the kind of experiment: HCV antiviral treatment, J6/JFH1-based recombinant with TN NS5A. To be noted: Hepatitis C virus, read-out: Median effective concentration (EC50). It counts as cell-based.
In data set [2] the test system is J6/JFH1 with J6-specific NS3/NS4A protease. The data set can be described thus: HCV antiviral treatment of Huh7.5 cells infected with J6/JFH1 with J6-specific NS3/NS4A protease. It counts as cell-based, hepatitis C virus (genotype 2a). Conditions: J6/JFH1 with J6-specific NS3/NS4A protease compared to J6^5′UTR-NS2/JFH1. The procedure:
as §3, §4

Another data set relates to J6/JFH1. The data set can be described thus: HCV antiviral treatment of Huh7.5 cells infected with J6/JFH1 virus stock. It counts as cell-based, hepatitis C virus (genotype 2a). To be noted: stated for HCV of genotypes 1 and 2. The procedure: as §1, §2
Briefly, Huh7.5 cells grown in poly-D-lysine-coated 96-well plates (Nunc) were infected with HCV and treated with DAAs 24 hours post-infection. […] Single HCV Core and NS5A positive cells were determined 72 hours post-infection by immunostaining with combination of C7-50 (Enzo Life Sciences) and 9E10 antibodies. […]

Where [3] appears, read: J6 virus compared to J6^5′UTR-NS2/JFH1.

In the case of interferon-α2b, in the data set on TN full-length virus, the “inhibition of TN full-length virus” value is “dose-dependently inhibited”. Moreover, the cytotoxic effects entry in the data set on Huh7.5 cells is reported as “No cytotoxic effects”.

In the case of `CC(C)[C@H](N)C(=O)O[C@@H]1[C@@H](CO)O[C@@H](n2ccc(N)nc2=O)[C@]1(C)O` [NM283], the “fold lower EC50 compared to J6^5′UTR-NS2/JFH1” value in the data set on J6 full-length virus (setting [3]) was around 6 fold. Moreover, the “inhibition of full-length J6 culture viruses” value with J6 full-length virus is given as “inhibited”.

Turning to `COC(=O)N[C@H](C(=O)N1CCC[C@H]1c1nc(-c2ccc(-c3ccc(-c4c[nH]c([C@@H]5CCCN5C(=O)[C@@H](NC(=O)OC)C(C)C)n4)cc3)cc2)c[nH]1)C(C)C` [daclatasvir], the EC50 in the data set on TN full-length virus (Hepatitis C virus, TN full-length virus, 72 hours post-infection, read-out: Median effective concentration (EC50)) came to 0.032 nM; in data set [1], 0.042 nM. The cytotoxic effects entry with Huh7.5 cells is reported as “No cytotoxic effects”.

Turning to `CCC[C@H](NC(=O)[C@@H]1[C@H]2CCC[C@H]2CN1C(=O)[C@@H](NC(=O)[C@@H](NC(=O)c1cnccn1)C1CCCCC1)C(C)(C)C)C(=O)C(=O)NC1CC1` [telaprevir], in the data set on Huh7.5 cells, the cytotoxic effects entry is listed as “No cytotoxic effects”.

For the molecule `COc1ccc2c(O[C@@H]3C[C@H]4C(=O)N[C@]5(C(=O)NS(=O)(=O)C6CC6)C[C@H]5/C=C\CCCCN(C)C(=O)[C@@H]4C3)cc(-c3nc(C(C)C)cs3)nc2c1C` [TMC435, simeprevir], the “fold higher EC50 than that found for J6^5′UTR-NS2/JFH1” value (with J6 full-length virus (setting [3]); in data set [2]) was 2-3 fold in each case. For the same molecule, in the data set on J6 full-length virus, the “inhibition of full-length J6 culture viruses” value is recorded as “inhibited”. In addition, the “inhibition of TN full-length virus” value in the data set with TN full-length virus is recorded as “dose-dependently inhibited”. For the same molecule, the cytotoxic effects result in the data set with Huh7.5 cells is reported as “No cytotoxic effects”.

For the molecule `CC(C)OC(=O)[C@H](C)N[P@](=O)(OC[C@H]1O[C@@H](n2ccc(=O)[nH]c2=O)[C@](C)(F)[C@@H]1O)Oc1ccccc1` [PSI-7977], the “inhibition of HCV of genotype 2 (J6/JFH1)” value in the data set with J6/JFH1 is “efficiently inhibit”. Besides, the “inhibition of TN full-length virus” value in the data set with TN full-length virus was “dose-dependently inhibited”. The cytotoxic effects result in the data set with Huh7.5 cells was “No cytotoxic effects”.

Regarding `C[C@@]1(F)[C@H](O)[C@@H](CO)O[C@H]1n1ccc(N)nc1=O` [PSI-6130], the “fold lower EC50 compared to J6^5′UTR-NS2/JFH1” value in the data set on J6 full-length virus (setting [3]) was “around 4 fold”. Further, in the data set with J6 full-length virus, the “inhibition of full-length J6 culture viruses” value is recorded as “inhibited”.

In the case of `CNC(=O)c1c(-c2ccc(F)cc2)oc2cc(N(CCO)S(C)(=O)=O)c(C3CC3)cc12` [HCV-796], the “fold lower EC50 compared to J6^5′UTR-NS2/JFH1” value in the data set with J6 full-length virus (setting [3]) is on record as around 2 fold. The “inhibition of full-length J6 culture viruses” value in the data set on J6 full-length virus is “inhibited”.

Regarding `CC(C)(C)NC(=O)N[C@H](C(=O)N1C[C@H]2[C@@H]([C@H]1C(=O)NC(CC1CCC1)C(=O)C(N)=O)C2(C)C)C(C)(C)C` (stereo partly drawn) [boceprevir], in the data set on Huh7.5 cells, the cytotoxic effects result is listed as “No cytotoxic effects”.

Values taken from patent US9382517B2, “HCV full-length infectious cell culture systems and applications thereof” (priority 2012, dated 2016).
